Data: ChEMBL document CHEMBL1145557, “Pyridine amides as potent and selective inhibitors of 11beta-hydroxysteroid dehydrogenase type 1” (Bioorg Med Chem Lett, 2008)
pIC50: −log10 of the molar value.

assay: Inhibition of human 11-beta HSD in microsomes from HEK293 cells by SPA method

| SMILES | pIC50 |
| --- | --- |
| CC1CCN(C(=O)c2cccc(COc3c(Cl)cccc3Cl)n2)CC1 | 7.10 |
| CC1CCN(C(=O)c2cccc(CSc3c(Cl)cccc3Cl)n2)CC1 | 8.14 |
| O=C(c1cccc(-c2ccc(C(F)(F)F)cc2)n1)N1CCCC2CCCCC21 (stereo unspecified) | 8.44 |
| O=C(c1cccc(COc2c(Cl)cccc2Cl)n1)N1CCCC2CCCCC21 (stereo unspecified) | 8.34 |
| CC1(C)C[C@H]2C[C@](C)(CN2C(=O)c2cncc(COc3c(Cl)cccc3Cl)c2)C1 | 8.77 |
| CC1(C)CCCN(C(=O)c2cccc(-c3ccc(OC(F)(F)F)cc3)n2)C1 | 8.96 |
| CC1CCN(C(=O)c2cccc(Oc3ccccc3Cl)n2)CC1 | 6.55 |
| CC1CCN(C(=O)c2cccc(Nc3ccccc3Cl)n2)CC1 | 6.42 |
| CC1CCN(C(=O)c2ccc(CSc3ccc(Cl)cc3)cc2)CC1 | 6.63 |
| CC1(C)CCCN(C(=O)c2cccc(-c3ccccc3Cl)n2)C1 | 8.54 |
| CC1(C)CCCN(C(=O)c2cccc(COc3c(Cl)cc(Cl)cc3Cl)n2)C1 | 8.19 |
| O=C(c1cccc(-c2ccccc2-c2ccccc2)n1)N1CCCC2CCCCC21 (stereo unspecified) | 8.33 |
| O=C(c1cccc(-c2ccccc2[N+](=O)[O-])n1)N1CCCC2CCCCC21 (stereo unspecified) | 8.70 |
| CC1(C)CCCN(C(=O)c2cccc(-c3ccc(Cl)cc3)n2)C1 | 8.96 |
| CC1CCN(C(=O)c2cccc(Sc3ccccc3Cl)n2)CC1 | 6.66 |
| Cc1ccc(-c2cccc(C(=O)N3CCCC(C)(C)C3)n2)cc1F | 10.00 |
| CC1CCN(C(=O)c2cccc(S(=O)(=O)c3ccccc3Cl)n2)CC1 | 5.33 |

Continued, values first:

| pIC50 | SMILES |
| --- | --- |
| 7.68 | O=C(c1cncc(CS(=O)(=O)c2c(Cl)cccc2Cl)c1)N1CCCCCC1 |
| 5.67 | O=C(c1cncc(CS(=O)(=O)c2c(Cl)cccc2Cl)c1)N1CCCC1 |
| 6.97 | CC1CCN(C(=O)c2ccnc(CS(=O)(=O)c3c(Cl)cccc3Cl)c2)CC1 |
| 6.50 | CC1CCN(C(=O)c2cc(CS(=O)(=O)c3c(Cl)cccc3Cl)ccn2)CC1 |
| 7.66 | CC1CCN(C(=O)c2cncc(CS(=O)(=O)c3c(Cl)cccc3Cl)c2)CC1 |
| 8.70 | O=C(c1cncc(COc2c(Cl)cccc2Cl)c1)N1CCCCC1c1cccnc1 (stereo unspecified) |
| 5.63 | NC(=O)C1CCN(C(=O)c2cncc(CS(=O)(=O)c3c(Cl)cccc3Cl)c2)CC1 |
| < 5.00 | O=C(c1cncc(CS(=O)(=O)c2c(Cl)cccc2Cl)c1)N1CCOCC1 |
| 6.66 | O=C(c1cncc(CS(=O)(=O)c2c(Cl)cccc2Cl)c1)N1CCCCC1 |
| 5.67 | CC1CCN(C(=O)c2ccc(CS(=O)(=O)c3c(Cl)cccc3Cl)cn2)CC1 |
| 7.89 | CC1CCN(C(=O)c2cccc(CS(=O)(=O)c3c(Cl)cccc3Cl)c2)CC1 |
| 7.96 | O=C(c1cncc(CS(=O)(=O)c2c(Cl)cccc2Cl)c1)N1CCCCCCC1 |
| 8.60 | O=C(c1cncc(CS(=O)(=O)c2c(Cl)cccc2Cl)c1)N1CCCCCCCC1 |
| 5.69 | CC1CCN(C(=O)c2ccc(CS(=O)(=O)c3c(Cl)cccc3Cl)nc2)CC1 |
